This is an account of results in PubChem BioAssay (NCI).

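Grown in 96-well plates, cells were treated for 48 hours with each compound at five concentrations. Insufficient inhibition: endpoint recorded as highest concentration tested. GI50: concentration for 50% inhibition of growth. At the TGI there is no net growth.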 Where a SMILES comes first, the peptide text is derived from it. The star is where a group is joined. Boc = CC(C)(C)OC(=O)*

Among the test systems are RXF 393 renal; UO-31 renal; T-47D breast; SNB-75 CNS; SK-OV-3 ovarian; MDA-MB-231 breast; SF-539 CNS; MDA-MB-435; EKVX NSCLC.
What all share (assay): DTP human tumour cell line panel, 48 h

`Cc1ccc(S(=O)(=O)NC(=O)NCCC(=O)O)cc1`: the TGI with RXF 393 renal, in the experiment on UO-31 renal, in the experiment on T-47D breast, in the experiment with SNB-75 CNS, in the experiment on SK-OV-3 ovarian and in the experiment on MDA-MB-231 breast was more than 100 µM throughout. Besides, the TGI in the experiment on SF-539 CNS is more than 100 µM.

In the case of `CN(C)CCOC(=O)c1ccc(N)cc1`, the TGI was more than 100 µM with RXF 393 renal; more than 100 µM with UO-31 renal; more than 100 µM in the experiment with T-47D breast; more than 100 µM with SK-OV-3 ovarian; 41.1 µM in the experiment with MDA-MB-231 breast; more than 100 µM with MDA-MB-435.

In the case of `COc1ccccc1NC(=S)N/N=C(/C)c1ccccn1`, the TGI in the experiment with RXF 393 renal is 23.4 µM; with UO-31 renal, more than 83.4 µM; in the experiment on SNB-75 CNS, 49.2 µM; in the experiment on SK-OV-3 ovarian, more than 89.2 µM; with MDA-MB-231 breast it was 7.46 µM; in the experiment with SF-539 CNS it was 14.9 µM. Moreover, the TGI in the experiment on EKVX NSCLC and in the experiment on MDA-MB-435 was more than 100 µM in each case.

Turning to `O=c1[nH]c2ccccc2nc1/C=C(\O)C(F)F`, the TGI in the experiment with RXF 393 renal, in the experiment with UO-31 renal, in the experiment with SK-OV-3 ovarian, with MDA-MB-231 breast, in the experiment on SF-539 CNS and in the experiment on EKVX NSCLC was more than 100 µM each time. Moreover, the TGI in the experiment on MDA-MB-435 was more than 100 µM.

For the compound `COC(=O)C(Cc1c[nH]c2ccccc12)NC(=O)C(Cc1c[nH]c2ccccc12)NC(=O)C(Cc1c[nH]c2ccccc12)NC(=O)C(Cc1c[nH]c2ccccc12)NC(=O)OC(C)(C)C` (stereo unspecified) (Boc-WWWW-OMe; configuration not given here), the TGI in the experiment on UO-31 renal, in the experiment with T-47D breast, in the experiment on SNB-75 CNS, in the experiment with MDA-MB-231 breast and with MDA-MB-435 was more than 100 µM throughout.

In the case of `O=C1C=C2CO[C@H]3OC[C@H](O)[C@@H]1[C@@H]23`, the TGI was 42 µM in the experiment with RXF 393 renal; more than 100 µM in the experiment on UO-31 renal; 67.3 µM in the experiment on T-47D breast; more than 100 µM in the experiment with SNB-75 CNS; more than 100 µM with SK-OV-3 ovarian; more than 100 µM in the experiment on MDA-MB-231 breast. The TGI with EKVX NSCLC and with MDA-MB-435 was more than 100 µM each time.

On to `Cc1ccc(NC(=S)Nc2c(C)n(C)n(-c3ccccc3)c2=O)cc1`, for which the TGI in the experiment on RXF 393 renal, in the experiment on UO-31 renal, in the experiment with SNB-75 CNS, in the experiment on SK-OV-3 ovarian, in the experiment with MDA-MB-231 breast and with SF-539 CNS was more than 100 µM throughout. The TGI with EKVX NSCLC and in the experiment with MDA-MB-435 was more than 100 µM in each case.

Take `CC(C)[C@H]1NC(=O)[C@H]2N=C(O[C@@H]2C)[C@@H]2CCCN2C(=O)[C@H](Cc2ccccc2)NC(=O)[C@@H]2CSC(=N2)[C@@H](Cc2ccccc2)NC(=O)[C@@H]2CSC1=N2`: the TGI with RXF 393 renal, in the experiment with UO-31 renal, in the experiment on T-47D breast, in the experiment on SK-OV-3 ovarian, with MDA-MB-231 breast and in the experiment on SF-539 CNS was more than 100 µM in each case. In addition, the TGI with EKVX NSCLC and with MDA-MB-435 was more than 100 µM throughout.

Take `CO/C(=N\N=C\c1ccc(Cl)cc1Cl)c1ccncc1`: the TGI in the experiment with RXF 393 renal, in the experiment on UO-31 renal, in the experiment on T-47D breast, with MDA-MB-231 breast, with EKVX NSCLC and in the experiment on MDA-MB-435 was more than 10 µM throughout.

With `O=C1CCCC2=C1C(c1ccc3c(c1)OCO3)Nc1ccc3ccccc3c12` (stereo unspecified), the TGI in the experiment with RXF 393 renal, with UO-31 renal, in the experiment with SNB-75 CNS, with SK-OV-3 ovarian, with MDA-MB-231 breast and in the experiment with SF-539 CNS was more than 100 µM in each case. The TGI in the experiment on EKVX NSCLC and with MDA-MB-435 was more than 100 µM each time.

As for `Nc1ccccc1NC(=O)CCCCCCC(=O)Nc1ccc2c(c1)/C(=C/c1ccc[nH]1)C(=O)N2`, the GI50 in the experiment with RXF 393 renal was more than 100 µM; with UO-31 renal it was 2.21 µM; with T-47D breast, 3.67 µM; in the experiment with SK-OV-3 ovarian it was 6.72 µM; with MDA-MB-231 breast it was more than 100 µM; in the experiment with SF-539 CNS it was 1.32 µM. Further, in the experiment on MDA-MB-435, the GI50 is 14.7 µM. For the same compound, the TGI in the experiment with RXF 393 renal, with UO-31 renal, with T-47D breast, in the experiment with SK-OV-3 ovarian, in the experiment with MDA-MB-231 breast and in the experiment on SF-539 CNS was more than 100 µM in each case. In the experiment on MDA-MB-435, this compound had a TGI of more than 100 µM.

As to `CC(=NCCN(CCN=C(C)c1c(O)cc(C)oc1=O)CCN=C(C)c1c(O)cc(C)oc1=O)c1c(O)cc(C)oc1=O`, the TGI with UO-31 renal, in the experiment with T-47D breast, with SNB-75 CNS, in the experiment on SK-OV-3 ovarian, with MDA-MB-231 breast and in the experiment with SF-539 CNS was more than 100 µM throughout. Also, the TGI with EKVX NSCLC and in the experiment on MDA-MB-435 was more than 100 µM each time.

Turning to `COC(=O)c1ccccc1C#CCCCOS(C)(=O)=O`, the TGI in the experiment with RXF 393 renal, in the experiment on UO-31 renal, with T-47D breast, with SK-OV-3 ovarian, with MDA-MB-231 breast and in the experiment on SF-539 CNS was more than 10 µM throughout. Besides, the TGI in the experiment with EKVX NSCLC and with MDA-MB-435 was more than 10 µM throughout.

For `COc1ccc(C(=C(I)c2ccccc2)c2ccc(OC)cc2)cc1`, the TGI with RXF 393 renal, in the experiment on UO-31 renal, in the experiment with T-47D breast, in the experiment with SK-OV-3 ovarian, in the experiment with MDA-MB-231 breast and in the experiment on SF-539 CNS was more than 100 µM throughout. The TGI in the experiment on EKVX NSCLC and with MDA-MB-435 was more than 100 µM each time.

Turning to `CCOC(=O)c1c2c(n3ccc(NC(=O)OC(C)(C)C)cc13)C(=O)c1ncccc1C2=O`, the GI50 with UO-31 renal is 0.0153 µM; in the experiment on T-47D breast, 0.382 µM; in the experiment on SNB-75 CNS, 0.167 µM; in the experiment with SK-OV-3 ovarian, 0.236 µM; in the experiment on SF-539 CNS, 0.118 µM; in the experiment on EKVX NSCLC it was 0.168 µM. Also, the TGI with UO-31 renal was 0.397 µM; in the experiment on T-47D breast, 5.31 µM; with SNB-75 CNS it was 1.72 µM; with SK-OV-3 ovarian it was 1.48 µM; in the experiment with SF-539 CNS, 0.549 µM; with EKVX NSCLC it was 2.03 µM.
